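Dose response: 5 concentrations. Exposure: 48 h. Format: 96-well plates. Endpoint: linear interpolation; highest concentration if not reached. GI50 marks 50% less growth.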 Activity calls are given as the source filed them. Rule as the data show it: active = GI50 up to about 1.1 µM and inactive = higher.
Assays:
Assay in all cases: DTP human tumour cell line panel, 48 h
HT-29 = system: HT-29
ACHN = system: ACHN
NCI/ADR-RES = system: NCI/ADR-RES
MOLT-4 = system: MOLT-4
SF-539 = system: SF-539
CAKI-1 = system: CAKI-1
HCT-116 = system: HCT-116
PC-3 = system: PC-3
U-251 = system: U-251
K562 = system: K562
SW-620 = system: SW-620
SK-MEL-2 = system: SK-MEL-2
SK-MEL-28 = system: SK-MEL-28
KM12 = system: KM12
MCF7 = system: MCF7
OVCAR-5 = system: OVCAR-5
SN12C = system: SN12C
786-0 = system: 786-0
OVCAR-4 = system: OVCAR-4
SNB-19 = system: SNB-19

SMILES	GI50 (HT-29)	GI50 (ACHN)	GI50 (NCI/ADR-RES)	GI50 (MOLT-4)	GI50 (SF-539)	GI50 (CAKI-1)	GI50 (HCT-116)	GI50 (PC-3)	GI50 (U-251)	GI50 (K562)	GI50 (SW-620)	GI50 (SK-MEL-2)	GI50 (SK-MEL-28)	GI50 (KM12)	GI50 (MCF7)	GI50 (OVCAR-5)	GI50 (SN12C)	GI50 (786-0)	GI50 (OVCAR-4)	GI50 (SNB-19)
COc1c(N2CCCCC2)c2c(=O)c3ccccc3oc2c2cc(C)oc12	3.87 µM (inactive)	5.6 µM (inactive)	15.3 µM (inactive)	4.03 µM (inactive)	35.9 µM (inactive)	14.1 µM (inactive)	2.34 µM (inactive)	12.7 µM (inactive)	24.4 µM (inactive)	6.1 µM (inactive)	8.81 µM (inactive)	15.9 µM (inactive)	25.4 µM (inactive)	16.5 µM (inactive)	16.7 µM (inactive)	23.5 µM (inactive)	24.8 µM (inactive)	6.35 µM (inactive)	13.9 µM (inactive)	40 µM (inactive)
CSC(SC)=C(C#N)C(=O)Nc1cccc(Cl)c1	46.7 µM (inactive)	75.2 µM (inactive)	32.5 µM (inactive)	20.5 µM (inactive)	57.5 µM (inactive)	45.9 µM (inactive)	30.6 µM (inactive)	50.4 µM (inactive)	76.7 µM (inactive)	32.4 µM (inactive)	39.8 µM (inactive)	> 100 µM (inactive)	64.7 µM (inactive)	> 100 µM (inactive)	34.8 µM (inactive)	98.2 µM (inactive)	> 100 µM (inactive)	33.8 µM (inactive)	27.9 µM (inactive)	> 100 µM (inactive)
NC1CCC(N(CC(=O)O)CC(=O)O)C(N(CC(=O)O)CC(=O)O)C1 (stereo not given)	> 100 µM (inactive)	> 100 µM (inactive)	> 100 µM (inactive)	> 100 µM (inactive)	> 100 µM (inactive)	> 100 µM (inactive)	> 100 µM (inactive)	> 100 µM (inactive)	> 100 µM (inactive)	> 100 µM (inactive)	> 100 µM (inactive)	> 100 µM (inactive)	> 100 µM (inactive)	> 100 µM (inactive)	> 100 µM (inactive)	> 100 µM (inactive)	> 100 µM (inactive)	> 10 µM (inactive)	> 100 µM (inactive)	> 100 µM (inactive)
CC(C)(C)c1cc(C=C(C#N)C#N)cc(C(C)(C)C)c1O [TYRPHOSTIN A9]	0.375 µM (active)	0.356 µM (active)	0.299 µM (active)	0.374 µM (active)	0.259 µM (active)	0.738 µM (active)	0.277 µM (active)	0.256 µM (active)	0.692 µM (active)	0.305 µM (active)	0.546 µM (active)	0.365 µM (active)	3.2 µM (inactive)	0.395 µM (active)	0.391 µM (active)	4.03 µM (inactive)	0.191 µM (active)	0.652 µM (active)	0.724 µM (active)	0.392 µM (active)
CC1Cc2cc(O)ccc2C2[C@@H]1C1CC[C@H](O)[C@@]1(C)C[C@@H]2O[N+](=O)[O-] (stereo not given in full)	16 µM (inactive)	14.7 µM (inactive)	3.82 µM (inactive)	7.48 µM (inactive)	3.79 µM (inactive)	10.2 µM (inactive)	5.18 µM (inactive)	20.1 µM (inactive)	3.99 µM (inactive)	3.79 µM (inactive)	6.76 µM (inactive)	5.46 µM (inactive)	17.5 µM (inactive)	19.7 µM (inactive)	4.86 µM (inactive)	33.4 µM (inactive)	14.7 µM (inactive)	8.26 µM (inactive)	26.7 µM (inactive)	9.68 µM (inactive)

From ChEMBL document CHEMBL1201862, “PubChem BioAssay data set” (2004)
